Laboratory results: ChEMBL document CHEMBL5325471, “Identification of new modulator of DNA repairing pathways based on natural product (±)-peharmaline A” (Bioorg Med Chem, 2023)
The source made the active and inactive calls. The calls are words filed in the database; no cut-off is given here.

Tests used:
PC-3 = assay: Antiproliferative activity against human PC-3 cells assessed as cell growth inhibition incubated for 44 hrs by MTT assay; assay type: functional, cell-based; conditions: PC-3, 44 h
MCF7 = assay: Antiproliferative activity against human MCF7 cells assessed as cell growth inhibition incubated for 44 hrs by MTT assay; assay type: functional, cell-based; conditions: MCF7, 44 h
[1] = Clearance in BALB/c mouse at 20 mg/kg, ip measured upto 24 hrs by LC-MS/MS analysis; assay type: ADME, organism-based; conditions: in vivo
HCT-116 [2] = assay: Induction of cell cycle arrest in human HCT-116 cells assessed as accumulation of cells at S phase at 2 uM incubated for 24 hrs by RNase/PI staining-based FACS flow cytometry analysis (reference value: 11 %); assay type: functional
HCT-116 [3] = assay: Induction of DNA damage in human HCT-116 cell assessed as increase in olive tail moment at 0.5 uM incubated for 24 hrs by EtBr-based alkaline Comet assay (Rvb= 0.26%); assay type: functional
HCT-116 [4] = assay: Inhibition of epithelial-to-mesenchymal transition in human HCT-116 cells assessed as downregulation of Snail-1 protein expression by immunoblot analysis; assay type: functional, cell-based
[5] = Cmax in BALB/c mouse at 20 mg/kg, ip measured upto 24 hrs by LC-MS/MS analysis; assay type: ADME, organism-based; set-up: dose 20 mg/kg, time < 24 hrs, route ip; conditions: in vivo
[6] = AUC (0 to t) in BALB/c mouse at 20 mg/kg, ip measured upto 24 hrs by LC-MS/MS analysis; assay type: ADME, organism-based; set-up: time < 24 hrs, dose 20 mg/kg, route ip; conditions: in vivo
HCT-116 [7] = assay: Induction of cell cycle arrest in human HCT-116 cells assessed as accumulation of cells at G1 phase at 2 uM incubated for 24 hrs by RNase/PI staining-based FACS flow cytometry analysis (reference value: 51 %); assay type: functional
HCT-116 [8] = assay: Induction of cell cycle arrest in human HCT-116 cells assessed as accumulation of cells at G2 phase at 2 uM incubated for 24 hrs by RNase/PI staining-based FACS flow cytometry analysis (reference value: 33 %); assay type: functional
[9] = Drug exposure in BALB/c mouse plasma at 20 mg/kg, ip measured upto 24 hrs by LC-MS/MS analysis; assay type: ADME, organism-based; set-up: dose 20 mg/kg, time < 24 hrs, route ip
HCT-116 [10] = assay: Induction of cell cycle arrest in human HCT-116 cells assessed as accumulation of cells at S phase at 0.5 uM incubated for 24 hrs by RNase/PI staining-based FACS flow cytometry analysis (reference value: 11 %); assay type: functional

IC50 (PC-3): 6.05 µM
IC50 (MCF7): 1.41 µM
CL/F [1]: 1.8 L/h/kg
Cmax [5]: 4.49 µg/mL
AUC(0-t) at 24 h [6]: 11 µg·h/mL
AUC at 24 h [9]: > 25 µM·h
SMILES: COC(=O)[C@]1([C@H]2CCn3c2nc2ccccc2c3=O)NCCc2c1[nH]c1ccccc21 (racemic)
Activity (HCT-116 [2]): 4%
Activity (HCT-116 [3]): 5.21%
inhibition (HCT-116 [4]): Active
Activity (HCT-116 [7]): 74%
Activity (HCT-116 [8]): 21%
Activity (HCT-116 [10]): 7%
